The results in this text go back to article PMC5000617, “Antiproliferative and Pro-Apoptotic Effect of Novel Nitro-Substituted Hydroxynaphthanilides on Human Cancer Cell Lines” (International Journal of Molecular Sciences, 2016).

Data set [1] has as its system MCF-7 cells. The data set is described as follows: WST-1 cell proliferation assay, MCF-7. The class given is cell-based, human. As for the experimental part: Initially, we examined the effect of six nitro-substituted hydroxynaphthanilides on the proliferation of human leukaemia and breast carcinoma cell lines, using Water Soluble Tetrazolium Salts-1 (WST-1) assay. For such analyses, THP-1 and MCF-7 cells were treated with the compounds at concentrations ranging from 0.5 to 20 μM for 24 h. […] The inhibitory effect of 2 and 6 was statistically significant (p < 0.001) starting from the concentration of 2.5 and 5 μM in THP-1 and MCF-7 cells, respectively. From the concentration-response curves, the IC50 values were determined.
(§1) THP-1 human monocytic leukemia cell line, MCF-7 human breast adenocarcinoma cells and 3T3-L1 mouse embryonic fibroblast were purchased from the European Collection of Cell Cultures (ECACC, Salisbury, UK). Cells were routinely tested for the absence of mycoplasma (Hoechst 33258 staining method). THP-1 cells were maintained in RPMI 1640 culture medium containing 2 mM L-glutamine; MCF-7 and 3T3-L1 cells were cultured in DMEM medium. All of the culture media were supplemented with 10% heat-inactivated FBS and antibiotics (100 U/mL penicillin and 100 μg/mL streptomycin). Cells were maintained at 37 °C in a humidified atmosphere containing 5% CO2.
(§2) Cell proliferation was evaluated using Cell Proliferation Reagent WST-1 (2-(4-iodophenyl)-3-(4-nitrophenyl)-5-(2,4-disulfophenyl)-2H-tetrazolium) (Roche Diagnostics, Mannheim, Germany) according to the manufacturer´s instructions. THP-1 (5 × 10^4 cells/100 μL culture medium per well), MCF-7 cells (1 × 10^4 cells/100 μL per well), and 3T3-L1 (2.5 × 10^3 cells/100 μL per well) were cultured in 96-well plates in triplicate. The measurement was performed using Synergy 2 Multi-Mode Microplate Reader (BioTek, Winooski, VT, USA) after 24 h incubation of cells with tested compounds dissolved in DMSO and subsequently in RPMI 1640 to final concentration ranging 0.5–20 μM in the assays. Cell viability was assessed by dye exclusion test. THP-1 (2 × 10^5 cells/mL per well) and MCF-7 cells (8 × 10^4 cells/mL per well) were incubated in 24-well plates with the indicated concentrations of compounds for 24 h. The number of viable cells was determined using hemocytometer after their staining with a solution of erythrosin B (0.1% erythrosin B (w/v) in PBS). The assays were conducted in triplicate. The IC50 and LC50 values were calculated from fitted concentration-response curves using GraphPad Prism 5.00 software (GraphPad Software, San Diego, CA, USA).

A short description of data set [2]: Erythrosin B dye exclusion viability test, THP-1. The class given is cell-based. The conditions noted are these: human, THP-1 cells; erythrosin B exclusion test, 24 h, mean ± SD; read-out: THP-1 LC50. On the procedure: (§3) Subsequently, for the comparison of the antiproliferative and cytotoxic effects we assessed the cell viability after 24 h treatment with compounds 1–6 in both tumour cell lines using the dye exclusion test.
as §1, §2

Data set [3] deals with THP-1 cells. The data set is described as follows: Erythrosin B dye exclusion viability test, THP-1. The class given is cell-based. As for the experimental part: as §3, §1, §2
Data set [4] is described as follows: Erythrosin B dye exclusion viability test, MCF-7. The class given is cell-based. The conditions noted are these: human, MCF-7 cells; erythrosin B exclusion test, 24 h, mean ± SD; read-out: MCF-7 LC50. As for the experimental part:
as §3, §1, §2

The subject of data set [5] is MCF-7 cells. Nature of the data set: Erythrosin B dye exclusion viability test, MCF-7. The data set is classed as cell-based. The settings on record: MCF-7, 24 h, vs control. On the procedure:
as §3, §1, §2

Data set [6] relates to cyclin E1. The data set is described as follows: Western blot of cyclin E1 in THP-1 cells. The class given is cell-based, human. The conditions noted are these: THP-1, 24 h. On the procedure:
(§4) Additionally, the cell cycle analysis allows determining the presence of a subdiploid cell population as a characteristic marker of cells with fractional DNA content. A significant increase (p < 0.001) of the sub-G1 peak was found only after the treatment with 5 µM of compound 2 in THP-1 cells, where an approximately eight-fold increase was observed compared to the drug-free control (Figure 4).
(§5) For Western blotting, cells were washed with PBS and lysed in lysis buffer (100 mM Tris-HCl, pH = 6.8; 20% glycerol; 1% SDS) containing protease and phosphatase inhibitor cocktails. Protein concentration was measured using Roti®-Quant universal (Carl Roth, Karsruhe, Germany) according to the manufacturer’s instructions. Cell lysates were supplemented with bromophenol blue (final concentration 0.01% (w/v)) and β-mercaptoethanol (final concentration 1% (v/v)) prior to being heated for 5 min at 95 °C. Equal amounts of protein (10 μg) were loaded into a 12% polyacrylamide gel, separated by SDS-polyacrylamide gel electrophoresis and subsequently electrotransferred onto nitrocellulose membranes. Reversible Ponceau S. staining was performed to assess equal sample loading. Then, the membranes were blocked with 5% non-fat dry milk in TBST (10 mM Tris-HCl pH = 7.5, 150 mM NaCl, 0.1% (v/v) Tween-20) and appropriate primary and secondary antibodies were used for immunodetection. The proteins were visualized by ECL Plus reagent according to the manufacturer’s instructions. The intensity of bands was semi-quantitatively analysed using the ImageJ software (National Institute of Mental Health, Bethesda, MD, USA).

Data set [7] relates to cyclin B1. The data set is described as follows: Western blot of cyclin B1 in THP-1 cells. The class given is cell-based, human. The settings on record: THP-1, 24 h. On the procedure:
as §4
as §5, with “Then, the membranes were blocked with 5% non-fat dry milk in TBST (10 mM Tris-HCl pH = 7.5, 150 mM NaCl, 0.1% (v/v) Tween-20) and appropriate primary and secondary antibodies were used for immunodetection. The proteins were visualized by ECL Plus reagent according to the manufacturer’s instructions.” left out
In general terms: Immunoblotting shows a protein as a band on a membrane.

Data set [8] concerns cyclin B1. The data set is described as follows: Western blot of cyclin B1 in MCF-7 cells. The data set is classed as cell-based, human. The settings on record: MCF-7, 24 h. On the procedure:
as §4
as §5, with “Then, the membranes were blocked with 5% non-fat dry milk in TBST (10 mM Tris-HCl pH = 7.5, 150 mM NaCl, 0.1% (v/v) Tween-20) and appropriate primary and secondary antibodies were used for immunodetection. The proteins were visualized by ECL Plus reagent according to the manufacturer’s instructions.” left out

The test system of data set [9] is caspase 3. Nature of the data set: Western blot of caspase 3 in THP-1 cells. The conditions noted are these: THP-1, 10 μM, 24 h. The data set is classed as cell-based, human. As for the experimental part:
Most of the apoptotic signalling pathways are controlled by caspases that belong to a group of cysteine proteases. To assess whether compound 2 affects these signalling cascades and which pathway is activated (intrinsic or extrinsic), the activities of caspase 3, caspase 9, and caspase 8 were evaluated using Western blot analysis.
as §5, with “Then, the membranes were blocked with 5% non-fat dry milk in TBST (10 mM Tris-HCl pH = 7.5, 150 mM NaCl, 0.1% (v/v) Tween-20) and appropriate primary and secondary antibodies were used for immunodetection. The proteins were visualized by ECL Plus reagent according to the manufacturer’s instructions.” left out

Some results are limits rather than exact numbers.

As for `O=C(Nc1cccc([N+](=O)[O-])c1)c1cc2ccccc2cc1O` [Compound 2, 3-hydroxy-N-(3-nitrophenyl)naphthalene-2-carboxamide], the concentration for half-maximal inhibition (IC50) in data set [1] (Homo sapiens, MCF7, WST-1, 24 h, 0.5-20 μM, mean ± SD) came to 4.61 ± 0.068 µM. The “effect on cell proliferation” value in data set [1] (MCF-7, 0.5-20 μM, 24 h) is recorded as “inhibit cell growth in both cell lines in a dose-dependent manner”. Moreover, the “concentration from which the inhibitory effect on proliferation was statistically significant (p < 0.001)” value in data set [1] (MCF-7, 24 h) is 5 µM. Besides, in data set [2], the CC50 at 24 h stood at 7.91 ± 0.24 µM. The “LC50 compared to IC50” value in [3] was 2–3 fold. In data set [4], the CC50 at 24 h was greater than 20 µM. Moreover, the “effect on cell viability” value in data set [5] is “Neither compound 2 nor 6 reduced cell viability under 50%”. Moreover, in data set [6], the “expression of cyclin E1” value is listed as “dose-dependent decrease in expression of cyclin E1” and the “levels of cyclin E1 low molecular weight (LMW E1) isoform” value is on record as “more pronounced reduction of LMW E1 isoform levels”. Besides, in data set [7], the “total protein levels of cyclin B1” value is given as “total protein levels of cyclin B1 were not changed”. Besides, the “total protein levels of cyclin B1” value in [8] is recorded as “total protein levels of cyclin B1 were not changed”. Also, in [9], the “decrease of pro-caspase 3 (inactive form) compared to control” value is “approximately two-fold” and the “increase of active caspase 3 level in comparison to control” value is “approximately two-fold”.

Broadly, the IC50 is the point on the concentration scale where inhibition reaches its midpoint.
